Measurements published in paper PMC6934184, “Selective DNA-PKcs inhibition extends the therapeutic index of localized radiotherapy and chemotherapy” (The Journal of Clinical Investigation, 2019).

Biological target: T1, STK33 (Homo sapiens, UniProt Q9BYT3)
T1 construct: purchased Thermo Fisher Scientific (Life Technologies) SelectScreen
Assay: SelectScreen LanthaScreen
Format: binding
Details: read-out: % displacement
Method in brief: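 Percent values come from Thermo SelectScreen profiling of NU5455, combining activity and binding assays. CSF1R was run in Z'LYTE format at Km app ATP, and CAMK1 in Adapta format with ATP listed at 10.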

T1 sequence (Q9BYT3 whole entry): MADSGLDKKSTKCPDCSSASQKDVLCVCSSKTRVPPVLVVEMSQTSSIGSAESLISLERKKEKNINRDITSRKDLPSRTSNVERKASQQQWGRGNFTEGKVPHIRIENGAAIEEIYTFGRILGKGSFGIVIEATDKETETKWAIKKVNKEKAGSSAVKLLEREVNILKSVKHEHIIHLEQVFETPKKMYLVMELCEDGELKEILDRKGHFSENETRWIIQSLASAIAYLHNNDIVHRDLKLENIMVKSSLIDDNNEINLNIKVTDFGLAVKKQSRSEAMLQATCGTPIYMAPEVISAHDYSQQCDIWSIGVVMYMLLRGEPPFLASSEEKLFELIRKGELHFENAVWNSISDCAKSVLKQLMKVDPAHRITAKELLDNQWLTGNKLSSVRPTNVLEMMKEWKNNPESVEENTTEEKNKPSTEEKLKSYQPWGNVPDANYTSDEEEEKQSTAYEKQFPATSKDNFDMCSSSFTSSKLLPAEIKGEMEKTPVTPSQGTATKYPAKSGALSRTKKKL

CN(C(=O)CN1CCOCC1)c1ccc2sc3c(-c4cccc5c(=O)cc(N6CC7CCC(C6)O7)oc45)cccc3c2c1 [NU5455]
inhibition at 1 µM: 4.7%
